From US20080200454A1, “CARBON-LINKED TETRAHYDRO-PYRAZOLO-PYRIDINE MODULATORS OF CATHEPSIN S” (priority 2007, published 2008)

What follows are compounds tested against Recombinant human cathepsin S (CatS) (Homo sapiens, UniProt P25774) (assay: Recombinant human cathepsin S (CatS) inhibition assay, fluorogenic substrate Z-Valine-Valine-Arginine-AMC). Details: not given.
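Note: Baculovirus-expressed CatS in pH 5.0 sodium acetate buffer with DTT and NaCl, fluorescence read each minute over 20 min, inhibition derived from rate slope.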

Recombinant human cathepsin S (CatS), sequence (P25774 115-331): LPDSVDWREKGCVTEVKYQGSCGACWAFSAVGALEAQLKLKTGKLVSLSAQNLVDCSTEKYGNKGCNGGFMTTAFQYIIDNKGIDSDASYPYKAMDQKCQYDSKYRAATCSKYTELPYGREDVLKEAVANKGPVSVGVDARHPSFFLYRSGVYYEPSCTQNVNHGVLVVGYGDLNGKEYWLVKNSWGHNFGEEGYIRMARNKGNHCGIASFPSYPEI

SMILES	IC50 [nM]
CS(=O)(=O)N1CCc2c(c(-c3ccc(Cl)c(C#Cc4ccc5c(c4)CNCC5)c3)nn2CCCN2CCN(C3CC3)CC2)C1 [Example 415, 7-[(2-Chloro-5-{1-[3-(4-cyclopropylpiperazin-1-yl)propyl]-5-(methylsulfonyl)-4,5,6,7-tetrahydro-1H-pyrazolo[4,3-c]pyridin-3-yl}phenyl)ethynyl]-1,2,3,4-tetrahydroisoquinoline]	90
CS(=O)(=O)N1CCc2c(c(-c3ccc(Cl)c(C#Cc4ccc(CNCCc5ccccc5)cc4)c3)nn2CCCN2CCOCC2)C1 [Example 316, N-{[4-({2-Chloro-5-[5-(methylsulfonyl)-1-(3-morpholin-4-ylpropyl)-4,5,6,7-tetrahydro-1H-pyrazolo[4,3-c]pyridin-3-yl]phenyl}ethynyl)phenyl]methyl}-2-phenylethanamine]	580
CS(=O)(=O)N1CCc2c(c(-c3ccc(Cl)c(CCCN4CCCCCC4)c3)nn2CCCN2CCC(N3CCCC3=O)CC2)C1 [Example 107, 1-[1-(3-{3-[3-(3-Azepan-1-yl-propyl)-4-chloro-phenyl]-5-methanesulfonyl-4,5,6,7-tetrahydro-pyrazolo[4,3-c]pyridin-1-yl}-propyl)-piperidin-4-yl]-pyrrolidin-2-one]	500
CS(=O)(=O)N1CCc2c(c(-c3ccc(Cl)c(CCCCO)c3)nn2CCCN2CCC(N3CCCC3=O)CC2)C1 [Example 311, 1-[1-(3-{3-[4-Chloro-3-(4-hydroxybutyl)phenyl]-5-(methylsulfonyl)-4,5,6,7-tetrahydro-1H-pyrazolo[4,3-c]pyridin-1-yl}propyl)piperidin-4-yl]pyrrolidin-2-one]	1350
COC(=O)Cc1cccc(C#Cc2cc(-c3nn(CCCN4CCOCC4)c4c3CN(S(C)(=O)=O)CC4)ccc2Cl)c1 [Example 11, (3-{2-Chloro-5-[5-methanesulfonyl-1-(3-morpholin-4-yl-propyl)-4,5,6,7-tetrahydro-1H-pyrazolo[4,3-c]pyridin-3-yl]-phenylethynyl}-phenyl)-acetic acid methyl ester]	2600
Cc1ccc(S(=O)(=O)NCCCc2cc(-c3nn(CCCN4CCOCC4)c4c3CN(S(C)(=O)=O)CC4)ccc2Cl)cc1 [Example 84, N-(3-{2-Chloro-5-[5-methanesulfonyl-1-(3-morpholin-4-yl-propyl)-4,5,6,7-tetrahydro-1H-pyrazolo[4,3-c]pyridin-3-yl]-phenyl}-propyl)-4-methyl-benzenesulfonamide]	8100
NC(=O)N1CCc2c(c(-c3ccc(Cl)c(C#Cc4ccc(Cl)c(CN5CCOCC5)c4)c3)nn2CCCN2CCCCC2)C1 [Example 602, 3-(4-Chloro-3-{[4-chloro-3-(morpholin-4-ylmethyl)phenyl]ethynyl}phenyl)-1-(3-piperidin-1-ylpropyl)-1,4,6,7-tetrahydro-5H-pyrazolo[4,3-c]pyridine-5-carboxamide]	40
CS(=O)(=O)N1CCc2c(c(-c3ccc(Cl)c(C#Cc4ccc(Oc5ccccc5)cc4)c3)nn2CCCN2CCOCC2)C1 [Example 17, 3-[4-Chloro-3-(4-phenoxy-phenylethynyl)-phenyl]-5-methanesulfonyl-1-(3-morpholin-4-yl-propyl)-4,5,6,7-tetrahydro-1H-pyrazolo[4,3-c]pyridine]	1900
NC(=O)N1CCc2c(c(-c3ccc(Cl)c(C#Cc4ccc(Cl)c(C(=O)NCC5CNCCO5)c4)c3)nn2CCCN2CCSCC2)C1 (stereo not drawn) [Example 584, 3-[4-Chloro-3-({4-chloro-3-[(morpholin-2-ylmethyl)carbamoyl]phenyl}ethynyl)phenyl]-1-(3-thiomorpholin-4-ylpropyl)-1,4,6,7-tetrahydro-5H-pyrazolo[4,3-c]pyridine-5-carboxamide]	40
CS(=O)(=O)NCCCc1cc(-c2nn(CCCN3CCOCC3)c3c2CN(S(C)(=O)=O)CC3)ccc1Cl [Example 80, N-(3-{2-Chloro-5-[5-methanesulfonyl-1-(3-morpholin-4-yl-propyl)-4,5,6,7-tetrahydro-1H-pyrazolo[4,3-c]pyridin-3-yl]-phenyl}-propyl)-methanesulfonamide]	9930
CS(=O)(=O)N1CCc2c(c(-c3ccc(Cl)c(CCCNS(=O)(=O)c4ccc(Cl)cc4)c3)nn2CCCN2CCOCC2)C1 [Example 83, 4-Chloro-N-(3-{2-chloro-5-[5-methanesulfonyl-1-(3-morpholin-4-yl-propyl)-4,5,6,7-tetrahydro-1H-pyrazolo[4,3-c]pyridin-3-yl]-phenyl}-propyl)-benzenesulfonamide]	7100
CN1CCC(C2CCN(C[C@H](O)Cn3nc(-c4ccc(Cl)c(C#Cc5ccc(Cl)cc5)c4)c4c3CCN(S(C)(=O)=O)C4)CC2)CC1 [Example 240, (2S)-1-[3-{4-Chloro-3-[(4-chlorophenyl)ethynyl]phenyl}-5-(methylsulfonyl)-4,5,6,7-tetrahydro-1H-pyrazolo[4,3-c]pyridin-1-yl]-3-(1′-methyl-4,4′-bipiperidin-1-yl)propan-2-ol]	10

Same assay, conditions: CatS IC50

SMILES	IC50 [nM]
CNC(=O)[C@@H]1Cc2ccc(C#Cc3cc(-c4nn(CCCN5CCOCC5)c5c4CN(S(C)(=O)=O)CC5)ccc3Cl)cc2CN1 [Example 192, (3S)-7-({2-Chloro-5-[5-(methylsulfonyl)-1-(3-morpholin-4-ylpropyl)-4,5,6,7-tetrahydro-1H-pyrazolo[4,3-c]pyridin-3-yl]phenyl}ethynyl)-N-methyl-1,2,3,4-tetrahydroisoquinoline-3-carboxamide]	80
O=C(CO)N1CCc2c(c(-c3ccc(Cl)c(C#Cc4ccc(CNCc5ccc(Cl)cc5)cc4)c3)nn2CCCN2CCSCC2)C1 [Example 413, 2-[3-(4-Chloro-3-{[4-({[(4-chlorophenyl)methyl]amino}methyl)phenyl]ethynyl}phenyl)-1-(3-thiomorpholin-4-ylpropyl)-1,4,6,7-tetrahydro-5H-pyrazolo[4,3-c]pyridin-5-yl]-2-oxoethanol]	100
NC(=O)C(=O)N1CCc2c(c(-c3ccc(Cl)c(C#Cc4ccc(Cl)c(C(=O)NCCN5CCOCC5)c4)c3)nn2CCCN2CCCCC2)C1 [Example 591, 5-[(5-{5-[Amino(oxo)acetyl]-1-(3-piperidin-1-ylpropyl)-4,5,6,7-tetrahydro-1H-pyrazolo[4,3-c]pyridin-3-yl}-2-chlorophenyl)ethynyl]-2-chloro-N-(2-morpholin-4-ylethyl)benzamide]	30
CS(=O)(=O)N1CCc2c(c(-c3ccc(Cl)c(C#Cc4ccccc4CNCc4ccccc4)c3)nn2CCCN2CCOCC2)C1 [Example 386, 1-[2-({2-Chloro-5-[5-(methylsulfonyl)-1-(3-morpholin-4-ylpropyl)-4,5,6,7-tetrahydro-1H-pyrazolo[4,3-c]pyridin-3-yl]phenyl}ethynyl)phenyl]-N-(phenylmethyl)methanamine]	770
NC(=O)N1CCc2c(c(-c3ccc(Cl)c(C#Cc4ccc(Cl)c(C(=O)NCCN5CCOCC5)c4)c3)nn2CCCN2CCCCC2)C1 [Example 590, 3-[4-Chloro-3-({4-chloro-3-[(2-morpholin-4-ylethyl)carbamoyl]phenyl}ethynyl)phenyl]-1-(3-piperidin-1-ylpropyl)-1,4,6,7-tetrahydro-5H-pyrazolo[4,3-c]pyridine-5-carboxamide]	70
NC(=O)N1CCc2c(c(-c3ccc(Cl)c(C#Cc4cccc(CNCc5ccc(Cl)cc5)c4)c3)nn2CCCN2CCSCC2)C1 [Example 171, 3-(4-Chloro-3-{[3-({[(4-chlorophenyl)methyl]amino}methyl)phenyl]ethynyl}phenyl)-1-(3-thiomorpholin-4-ylpropyl)-1,4,6,7-tetrahydro-5H-pyrazolo[4,3-c]pyridine-5-carboxamide]	200
C[C@H]1COCCN1CCCn1nc(-c2ccc(Cl)c(C#Cc3ccc(Cl)c(CN4CCOCC4)c3)c2)c2c1CCN(C(=O)C(N)=O)C2 [Example 588, 2-[3-(4-Chloro-3-{[4-chloro-3-(morpholin-4-ylmethyl)phenyl]ethynyl}phenyl)-1-{3-[(3S)-3-methylmorpholin-4-yl]propyl}-1,4,6,7-tetrahydro-5H-pyrazolo[4,3-c]pyridin-5-yl]-2-oxoacetamide]	40
CS(=O)(=O)NC1CCN(CCCn2nc(-c3ccc(Cl)c(C#Cc4ccc(CNCc5ccc(Cl)cc5)cc4)c3)c3c2CCN(S(C)(=O)=O)C3)CC1 [Example 359, N-(1-{3-[3-(4-Chloro-3-{[4-({[(4-chlorophenyl)methyl]amino}methyl)phenyl]ethynyl}phenyl)-5-(methylsulfonyl)-4,5,6,7-tetrahydro-1H-pyrazolo[4,3-c]pyridin-1-yl]propyl}piperidin-4-yl)methanesulfonamide]	80
CS(=O)(=O)N1CCc2c(c(-c3ccc(Cl)c(C#Cc4ccc(CNCc5cccs5)cc4)c3)nn2CCCN2CCOCC2)C1 [Example 421, 1-[4-({2-Chloro-5-[5-(methylsulfonyl)-1-(3-morpholin-4-ylpropyl)-4,5,6,7-tetrahydro-1H-pyrazolo[4,3-c]pyridin-3-yl]phenyl}ethynyl)phenyl]-N-(2-thienylmethyl)methanamine]	190
NC(=O)N1CCc2c(c(-c3ccc(Cl)c(C#Cc4ccc(CNCc5ccccc5Cl)cc4)c3)nn2CCCN2CCSCC2)C1 [Example 488, 3-(4-Chloro-3-{[4-({[(2-chlorophenyl)methyl]amino}methyl)phenyl]ethynyl}phenyl)-1-(3-thiomorpholin-4-ylpropyl)-1,4,6,7-tetrahydro-5H-pyrazolo[4,3-c]pyridine-5-carboxamide]	140
CNCCCNC(=O)c1cc(C#Cc2cc(-c3nn(CCCN4CCSCC4)c4c3CN(C(=O)C(N)=O)CC4)ccc2Cl)ccc1Cl [Example 565, 5-[(5-{5-[Amino(oxo)acetyl]-1-(3-thiomorpholin-4-ylpropyl)-4,5,6,7-tetrahydro-1H-pyrazolo[4,3-c]pyridin-3-yl}-2-chlorophenyl)ethynyl]-2-chloro-N-[3-(methylamino)propyl]benzamide]	20
CS(=O)(=O)N1CCc2c(c(-c3ccc(Cl)c(CCCN4CCC(F)(F)CC4)c3)nn2CCCN2CCC(N3CCCC3=O)CC2)C1 [Example 104, 1-{1-[3-(3-{4-Chloro-3-[3-(4,4-difluoro-piperidin-1-yl)-propyl]-phenyl}-5-methanesulfonyl-4,5,6,7-tetrahydro-pyrazolo[4,3-c]pyridin-1-yl)-propyl]-piperidin-4-yl}-pyrrolidin-2-one]	930
